The source of these data is patent US20040106663A1, “Inhibitors of fungal invasion” (priority 2002, published 2004).

In experiment [1] the test system is logarithmic phase C. albicans (MC295) containing HWP1-lacZ. Briefly: microbe, parasite or virus in culture. It counts as cell-based. As to conditions: Candida albicans, read-out: C. albicans LOG IC50, logarithmic phase growth invasion assay (converted).
Experiment [2] deals with stationary phase C. albicans (MC295) containing HWP1-lacZ. Briefly: microbe, parasite or virus in culture. It counts as cell-based, Candida albicans. To be noted: Candida albicans, read-out: C. albicans STAT IC50, stationary phase growth invasion assay.
The subject of a further experiment is C. albicans. The experiment is described as follows: C. albicans overnight growth inhibition. It counts as cell-based, Candida albicans. On the set-up: concentration or dose not given beside the values.
The next experiment has as its system C. albicans (MC303). The experiment is described as follows: C. albicans morphology assay (hyphae scored 1-5). As to conditions: invasion morphology phenotype, test compound at 10 μM, scale 1-5.

In general, IC50 refers to the concentration at which inhibition is half-maximal.

Molecules are shown by their SMILES. Where “and” joins values, the source holds several entries; their conditions need not be identical. Equal values may be shown once.

Protocol for C. albicans (MC303): In this assay, described in greater detail below, the morphology of cells was assessed and scored on a 1-5 scale. A score of 1 was assigned to non-hyphal cells, “yeast-like” cells and budding cells, and a score of 5 was assigned to cells having many, relatively long (wild-type) hyphae.
A frozen stock culture was prepared by streaking C. albicans (MC303: ura3 Δ:: imm434/ura3Δ:: imm434 arg4::hisG/arg4::hisG ade2:: URA3:.pTEF1-lacZ/ADE2 hisl::hisG/HIS1 gal1::ARG4/GAL1) cells on a YPD agar plate and grown at 30° C. for 14-18 h. An isolated colony was added to 5 mL of YPD broth and grown on a roller drum (60 rpm) for 14-18 h at 30° C. Next, 600 μL of culture were aliquotted into 1 mL of 25% glycerol, and the tubes are stored at −80° C.
Frozen MC303 C. albicans cell stock was struck for isolation of a single colony using a sterile loop on a YPD agar plate and grown at 30° C. for 14-18 h. A single colony was inoculated into 5 mL of YPD in a test tube and grown on a roller drum (60 rpm) for 2 days at 30° C. to late stationary phase (OD600˜30). For the assay, this stock was diluted to 2.5×10^5 cells/mL to make a 10× stock. Next, 10 μL of this cell stock was added to 80 μL of Inducing Media and 10 μL of 10× compound stock or DMSO in a Coming, tissue-culture treated, flat-bottom, microtiter plate. The plate was incubated at 37° C. for 24 h. Next, 10 μL of formaldehyde (37%) was added to each well and the cells were fixed for 10 min. The liquid was gently decanted from the plate and each well was examined under a microscope. Each well was photographed and observed cells are scored on a scale of 1-5. […] A 1 indicates cells are non-hyphal with only “yeast-like” cells and budding cells.
Scores of 2, 3, and 4 indicate shorter length or reduced quantity of hyphae when compared with WT (2 being very near non-hyphal and 4 being close to WT).

Turning to `Cc1cc(NS(=O)(=O)c2ccc(-c3ccc(C)s3)cc2)no1`, the IC50 is 0.05 µM in experiment [1] and 4.91 µM in experiment [2]. Besides, the “C. albicans Overnight Growth Inhibition” value in the experiment on C. albicans was 22.4%.

As for `Cc1cc(NS(=O)(=O)c2ccc(OCC3CC3)cc2)no1`, the IC50 was 0.051 µM in experiment [1] and 11.5 µM in experiment [2]. Moreover, the “C. albicans Overnight Growth Inhibition” value in the experiment on C. albicans is −7.3%. In addition, the “C. albicans Phenotype Rating” value in the experiment on C. albicans (MC303) was 5.

`CCCCc1ccc(S(=O)(=O)Nc2ccon2)cc1`: the IC50 is 1.42 µM in experiment [1] and 17.4 µM in experiment [2]. In the experiment with C. albicans, the “C. albicans Overnight Growth Inhibition” value worked out at 18.3%. The “C. albicans Phenotype Rating” value with C. albicans (MC303) is given as 5.

For the molecule `Cc1cc(NS(=O)(=O)c2ccc(-c3cc(Cl)cc(Cl)c3)cc2)no1`, the values for the IC50 in experiment [1] and in experiment [2] were 1.48 µM and more than 20 µM, respectively. Further, the “C. albicans Overnight Growth Inhibition” value in the experiment on C. albicans is −3.1%. Besides, in the experiment on C. albicans (MC303), the “C. albicans Phenotype Rating” value is reported as 5.

`Cc1cc(NS(=O)(=O)c2ccc(-c3cc4ccccc4s3)cc2)no1`: the results for the IC50 in experiment [1] and in experiment [2] were 1.76 µM and more than 20 µM, respectively. Besides, the “C. albicans Overnight Growth Inhibition” value with C. albicans was −1.8%. Also, the “C. albicans Phenotype Rating” value in the experiment on C. albicans (MC303) is 4 and 5.

In the case of `CCCCC(F)(F)c1ccc(S(=O)(=O)Nc2cc(C)on2)cc1`, the IC50 was 2.02 µM in experiment [1] and more than 20 µM in experiment [2]. Besides, the “C. albicans Overnight Growth Inhibition” value in the experiment with C. albicans is recorded as −1.6%. Further, the “C. albicans Phenotype Rating” value with C. albicans (MC303) worked out at 5.

On to `Cc1cc(NS(=O)(=O)c2ccc(-n3cccn3)cc2)no1`, for which the IC50 in experiment [1] was 2.1 µM; in experiment [2] it was more than 20 µM. Besides, in the experiment on C. albicans, the “C. albicans Overnight Growth Inhibition” value is −13.3%. In the experiment with C. albicans (MC303), the “C. albicans Phenotype Rating” value was 5.

As to `Cc1cc(NS(=O)(=O)c2ccc3ccccc3c2)no1`, the results for the IC50 in experiment [1] and in experiment [2] were 2.26 µM and more than 20 µM, respectively. In addition, the “C. albicans Overnight Growth Inhibition” value in the experiment on C. albicans is listed as −14.7%. Moreover, the “C. albicans Phenotype Rating” value in the experiment on C. albicans (MC303) was found to be 5.

On to `CCCN(CCC)c1ccc(S(=O)(=O)Nc2cc(C)on2)cc1`, for which the figures for the IC50 in experiment [1] and in experiment [2] were 2.79 µM and more than 20 µM, respectively. Moreover, the “C. albicans Overnight Growth Inhibition” value in the experiment on C. albicans is −2.8%. The “C. albicans Phenotype Rating” value in the experiment on C. albicans (MC303) was determined as 5.

For `Cc1cc(NS(=O)(=O)c2ccc(-c3nccs3)cc2)no1`, the 50% inhibitory concentration (IC50) in experiment [1] was 2.8 µM; in experiment [2], more than 20 µM. In the experiment on C. albicans, the “C. albicans Overnight Growth Inhibition” value came to 32.7%. Also, in the experiment with C. albicans (MC303), the “C. albicans Phenotype Rating” value was 3 and 5.

Consider `Cc1cc(NS(=O)(=O)c2ccc(-c3cccc(Cl)c3Cl)cc2)no1`, for which the results for the IC50 in experiment [1] and in experiment [2] were 3.01 µM and more than 20 µM, respectively. For the same molecule, the “C. albicans Overnight Growth Inhibition” value in the experiment with C. albicans is recorded as −0.3%. For the same molecule, in the experiment on C. albicans (MC303), the “C. albicans Phenotype Rating” value amounted to 5.

As to `Cc1cc(NS(=O)(=O)c2ccc(-c3ccc(F)cc3F)s2)no1`, the results for the IC50 in experiment [1] and in experiment [2] were 3.36 µM and more than 20 µM, respectively. Further, the “C. albicans Overnight Growth Inhibition” value in the experiment on C. albicans is on record as −0.6%. The “C. albicans Phenotype Rating” value with C. albicans (MC303) is 5.

For the molecule `Cc1cc(NS(=O)(=O)c2ccc(OC(C)C)cc2)no1`, the IC50 in experiment [1] was 3.6 µM; in experiment [2], more than 20 µM. The “C. albicans Overnight Growth Inhibition” value in the experiment on C. albicans was 0.8%. The “C. albicans Phenotype Rating” value with C. albicans (MC303) was 5.

For the molecule `Cc1cc(NC(=O)Nc2ccc(S(=O)(=O)Nc3cc(C)on3)cc2)no1`, the IC50 in experiment [1] was 5.16 µM; in experiment [2] it was more than 20 µM. In addition, the “C. albicans Overnight Growth Inhibition” value in the experiment on C. albicans is −25.4%. For the same molecule, the “C. albicans Phenotype Rating” value with C. albicans (MC303) was 5.

Consider `Cc1cc(NS(=O)(=O)c2ccc(Oc3ccccc3)cc2)no1`, for which the IC50 in experiment [1] is 5.21 µM; in experiment [2] it was more than 20 µM. Further, the “C. albicans Overnight Growth Inhibition” value in the experiment with C. albicans is on record as 4.4%. Further, the “C. albicans Phenotype Rating” value in the experiment with C. albicans (MC303) was 5.

For `Cc1cc(NS(=O)(=O)c2ccc(CCCCCCCCCCO)cc2)no1`, the IC50 is 17.3 µM in experiment [1] and more than 20 µM in experiment [2]. In addition, the “C. albicans Overnight Growth Inhibition” value in the experiment with C. albicans was 71.0%. Further, in the experiment with C. albicans (MC303), the “C. albicans Phenotype Rating” value was 5.

On to `Cc1cc(NS(=O)(=O)c2ccc(CC3C4CCC(C4)C3(C)C)cc2)no1` (stereo not shown), for which the 50% inhibitory concentration (IC50) was 18 µM in experiment [1] and more than 20 µM in experiment [2]. Besides, the “C. albicans Overnight Growth Inhibition” value with C. albicans is −0.6%. Also, the “C. albicans Phenotype Rating” value in the experiment on C. albicans (MC303) came out at 5.
